Reference: patent US20250270208A1, “BICYCLIC HETEROCYCLES AS MRGPRX2 ANTAGONISTS” (Incyte Corporation, priority 2023, published 2025)

Tests used:
Type in all cases: cell-based
[1] = target: T1, MRGPRX2 (Homo sapiens, UniProt Q96LB1); experiment: MRGPRX2 FLIPR calcium mobilization assay; set-up: host or cells: CHO-K1; conditions: CHO-K1 cells stably expressing human MRGPRX2; Ca2+ release; agonist Cortistatin-14 at EC80
T1 sequence (Q96LB1 1-330): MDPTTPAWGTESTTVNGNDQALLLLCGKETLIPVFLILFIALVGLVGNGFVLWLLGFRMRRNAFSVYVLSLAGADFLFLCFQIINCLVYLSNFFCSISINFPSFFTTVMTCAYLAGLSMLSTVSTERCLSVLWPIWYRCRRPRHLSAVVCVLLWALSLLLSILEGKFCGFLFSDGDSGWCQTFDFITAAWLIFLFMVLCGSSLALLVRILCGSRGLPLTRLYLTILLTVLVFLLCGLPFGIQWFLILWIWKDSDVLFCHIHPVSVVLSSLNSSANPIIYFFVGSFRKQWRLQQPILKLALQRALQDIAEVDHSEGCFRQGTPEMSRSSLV
Procedure: Chinese hamster ovary (CHO-K1) cells stably expressing human MRGPRX2 were purchased from Genescript (Piscataway, NJ). The cells were maintained in culture medium (Ham's F-12K) containing 10% (v/v) FBS, 200 μg/mL Zeocin, 100 units/mL penicillin G and 100 μg/mL streptomycin (Life Technologies, Carlsbad, CA). For the assay, the cells were harvested and resuspended with culture medium without Zeocin before plating at 8000 cells per well in 20 μL in 384-well black clear bottom cell culture plates (VWR, Radnor, PA). After 24 hour culture at 37° C. and 5% CO2, the cells were loaded with 20 μL/well of calcium dye (FLIPR Calcium 6 Assay Kit, Molecular Devices, San Jose, CA) diluted in loading buffer (1× Hank's Balanced Salt Solution (HBSS), 5 mM probenecid, 20 mM 4-(2-hydroxyethyl)-1-piperazineethanesulfonic acid (HEPES), pH 7.4, VWR, Radnor, PA) followed with 45 min incubation at 37° C. and 40 min. at r.t. in the dark. Cells were then treated with the addition of 10 uL/well test compounds with a range of increasing concentrations diluted in the assay buffer (1×HBSS, 20 mM HEPES, pH 7.4, VWR, Radnor, PA) with FLIPR Penta (Molecular Devices. San Jose, CA) and incubated for 30 min. at r.t. Ca^2+ release was measured with FLIPR Penta with 10 s basal fluorescence measurement, then 12.5 μL of 5× agonist Cortistatin-14 (Tocris, Minneapolis, MN) at final concentration corresponding to the EC80 were added followed with continued fluorescence signal monitoring for an additional 110 s. The base line adjusted (median of first 10 s base line) max value of the Relative Fluorescence Unit (RFU) was plotted against compound concentrations. Wells with no compound were served as the positive controls, and wells with high concentration of reference antagonist were used as negative controls. IC50 curves were globally fitted with 3- or 4-parameter Hill equation in a Genedata Screener (Genedata Basel, Switzerland).

[2] = target: T1, MRGPRX2; experiment: MRGPRX2 β-Arrestin assay; set-up: host or cells: PathHunter CHO-K1; conditions: PathHunter CHO-K1 MRGPRX2 β-Arrestin cell line; agonist Cortistatin 14 0.25 μM
Excerpt: This assay measures compound inhibition of β-Arrestin recruitment, which is part of the G protein-independent pathway that results from the ligand-activated GPCR phosphorylation by specific GPCR kinases. The PathHunter CHO-K1 MRPGRX2 β-Arrestin Cell line stably expressing ProLink tagged MRGPRX2 and Enzyme Acceptor Tagged β-Arrestin was purchased from Eurofins DiscoverX, (Fremont, CA).
The cells were maintained in culture medium from the Europhins DiscoverX Cell Culture Kit-107 which includes FBS, hygromycin B and G418. For the assay, the cells were harvested and were resuspended with Cell Plating Reagent 2 (Eurofins DiscoverX). Cells were added 10000 cells in 25 μL/well to a 384-well black cell culture plate (Greiner VWR, Radnor, PA) which contained 125 nL/well of compound at a selected serially diluted concentration range or DMSO. The plate was incubated at 37° C. with 5% CO2 for 1 h. 2 μL/well of agonist Cortistatin 14 was diluted in Protein Dilution Buffer, (Eurofins DiscoverX) for a final concentration of 0.25 μM, was added and the plate was incubated at 37° C. with 5% CO2 for 90 min. 14 μL/well of Detection Reagent Mix (PathHunter Detection Kit, Eurofins DiscoverX) was added to the plates and further incubated for 1 h in the dark. Plates were read on the PHERAstar microplate reader (BMG Labtech Cary, NC) measuring luminescence 0.1 to 1 s per well. Data was normalized using DMSO only wells and wells with high concentration of reference antagonist as controls. Compound IC50 curves were globally fitted with 3- or 4-parameter Hill equation in a Genedata Screener (Genedata Basel, Switzerland).

[3] = target: T1, MRGPRX2; experiment: MRGPRX2 IP1 HTRF assay; set-up: host or cells: CHO-K1; conditions: CHO-K1 cells stably expressing human MRGPRX2; IP1 accumulation; agonist Cortistatin 14 1 μM
Procedure: This assay measures compound inhibition of myo-Inositol 1 phosphate (IP1) accumulation in CHO-K1 cells. Chinese hamster ovary (CHO-K1) cells stably expressing human MRGPRX2 were purchased from GenScript (Piscataway, NJ).
For the HTRF IP1 determination, an IP-One GqKit (Perkin Elmer Cisbio, Waltham, MA), which includes all reagents and buffers in this protocol, was used. The cells were maintained in culture medium (Ham's F-12K) containing 10% (v/v) FBS, and 200 μg/mL Zeocin. For the assay, the cells were harvested and resuspended in culture medium with 2% FBS and without Zeocin, then were passed through a 40 μm filter. Cells were added at 20000 cells in a 5 μL/well to a 384-well white small volume cell culture plate (Greiner VWR, Radnor, PA) which contained 50 nL/well of test compound serially diluted at a selected concentration range in DMSO. 5 μL/well of prepared 2× Stimulation Buffer 2 was then added to plates and was incubated at 37° C. with 5% CO2 for 1 h. 5 μL/well of agonist Cortistatin 14 (Bio-TechneR&D Systems, Minneapolis, MN) in 1× Stimulation Buffer 2, for a 1 μM final concentration, was then added to plates and incubated at 37° C. with 5% CO2 for 1 h. 6 μL/well of 1:20 diluted Detection Reagent Mix (d2 and Cryptate) was added to the plates and incubated for 1 h in the dark. Plates were read on the PHERAstar microplate reader (BMG Labtech Cary, NC) to determine the HTRF ratio of the acceptor and donor emission signals. The IP1 concentrations were calculated from a standard curve following the IP-One GQ kit instructions. Wells with DMSO only and wells with high concentration of reference antagonist were used as controls for normalization. Compound IC50 curves were globally fitted with 3- or 4-parameter Hill equation in a Genedata Screener (Genedata Basel, Switzerland).

Structure (SMILES)	IC50 [1] [µM]	IC50 [2] [µM]	IC50 [3] [µM]
Cn1cnc2ccnc(N[C@@H]3CCC[C@H](Nc4cc(C(F)(F)F)nc5ccc(Br)cc45)C3)c21 [Example 16, (1S,3R)-N^1-(6-Bromo-2-(trifluoromethyl)quinolin-4-yl)-N^3-(3-methyl-3H-imidazo[4,5-c]pyridin-4-yl)cyclohexane-1,3-diamine]	0.0001 to 0.1	0.0001 to 0.1	0.0001 to 0.1
Cn1cnc2ccnc(N[C@H]3CC[C@@H](Nc4cc(C(F)(F)F)nc5ccc(Cl)cc45)CC3)c21 [Example 7, (1s,4s)-N^1-(6-Chloro-2-(trifluoromethyl)quinolin-4-yl)-N^4-(3-methyl-3H-imidazo[4,5-c]pyridin-4-yl)cyclohexane-1,4-diamine]	0.0001 to 0.1	–	0.0001 to 0.1
Fc1ccc2nc(C(F)(F)F)cc(N[C@H]3CCC[C@@H](Nc4nnc5ccccn45)C3)c2c1 [Example 33, (1R,3S)-N^1-([1,2,4]Triazolo[4,3-a]pyridin-3-yl)-N^3-(6-fluoro-2-(trifluoromethyl)quinolin-4-yl)cyclohexane-1,3-diamine]	0.0001 to 0.1	0.0001 to 0.1	0.0001 to 0.1
FC(F)(F)c1cc(N[C@H]2CCC[C@@H](Nc3nccc4cnccc34)C2)c2cc(Cl)ccc2n1 [Example 6, (1S,3R)-N^1-(6-Chloro-2-(trifluoromethyl)quinolin-4-yl)-N^3-(2,6-naphthyridin-1-yl)cyclohexane-1,3-diamine]	0.0001 to 0.1	–	0.1 to 1
FC(F)(F)c1cc(N[C@H]2CCC[C@@H](Nc3nnc4n3CCC4)C2)c2cc(Cl)ccc2n1 [Example 34, (1S,3R)-N^1-(6-Chloro-2-(trifluoromethyl)quinolin-4-yl)-N^3-(6,7-dihydro-5H-pyrrolo[2,1-c][1,2,4]triazol-3-yl)cyclohexane-1,3-diamine]	0.0001 to 0.1	–	0.1 to 1
FC(F)(F)c1cc(N[C@H]2CCC[C@@H](Nc3nccn4cncc34)C2)c2cc(Br)ccc2n1 [Example 29, (1S,3R)-N^1-(6-bromo-2-(trifluoromethyl)quinolin-4-yl)-N^3-(imidazo[1,5-a]pyrazin-8-yl)cyclohexane-1,3-diamine]	0.0001 to 0.1	–	0.0001 to 0.1
Cn1cnc2ncnc(N[C@@H]3CCC[C@H](Nc4cc(C(F)(F)F)nc5ccc(Cl)cc45)C3)c21 [Example 8, (1S,3R)-N^1-(6-Chloro-2-(trifluoromethyl)quinolin-4-yl)-N^3-(7-methyl-7H-purin-6-yl)cyclohexane-1,3-diamine]	0.0001 to 0.1	–	0.0001 to 0.1
FC(F)(F)c1cc(N[C@H]2CCC[C@@H](Nc3cc(N4CCOCC4)ccn3)C2)c2cc(Cl)ccc2n1 [Example 3, (1S,3R)-N^1-(6-Chloro-2-(trifluoromethyl)quinolin-4-yl)-N^3-(4-morpholinopyridin-2-yl)cyclohexane-1,3-diamine]	0.1 to 1	–	0.1 to 1
Cn1cnc2ccnc(N[C@H]3CC[C@@H](Nc4cc(C(F)(F)F)nc5ccc(F)cc45)CC3)c21 [Example 23, (1s,4s)-N^1-(6-Fluoro-2-(trifluoromethyl)quinolin-4-yl)-N^4-(3-methyl-3H-imidazo[4,5-c]pyridin-4-yl)cyclohexane-1,4-diamine]	0.0001 to 0.1	0.0001 to 0.1	0.0001 to 0.1
Cn1ncc2ccnc(N[C@@H]3CCC[C@H](Nc4cc(C(F)(F)F)nc5ccc(Cl)cc45)C3)c21 [Example 2, (1S,3R)-N^1-(6-Chloro-2-(trifluoromethyl)quinolin-4-yl)-N^3-(1-methyl-1H-pyrazolo[3,4-c]pyridin-7-yl)cyclohexane-1,3-diamine]	0.0001 to 0.1	–	0.1 to 1
Fc1ccc2nc(C(F)(F)F)cc(N[C@H]3CCC[C@@H](Nc4nccn5cncc45)C3)c2c1 [Example 28, (1S,3R)-N^1-(6-fluoro-2-(trifluoromethyl)quinolin-4-yl)-N^3-(imidazo[1,5-a]pyrazin-8-yl)cyclohexane-1,3-diamine]	0.0001 to 0.1	–	0.0001 to 0.1
Cn1c(N[C@@H]2CCC[C@H](Nc3cc(C(F)(F)F)nc4ccc(Cl)cc34)C2)nc2cnccc21 [Example 32, (1S,3R)-N^1-(6-Chloro-2-(trifluoromethyl)quinolin-4-yl)-N^3-(1-methyl-1H-imidazo[4,5-c]pyridin-2-yl)cyclohexane-1,3-diamine]	0.0001 to 0.1	–	0.0001 to 0.1
FC(F)(F)c1cc(N[C@H]2CCC[C@@H](Nc3ccnc4ncccc34)C2)c2cc(Cl)ccc2n1 [Example 27, (1S,3R)-N^1-(6-Chloro-2-(trifluoromethyl)quinolin-4-yl)-N^3-(1,8-naphthyridin-4-yl)cyclohexane-1,3-diamine]	0.0001 to 0.1	–	0.1 to 1
FC(F)(F)c1cc(N[C@H]2CCC[C@@H](Nc3nccn4nccc34)C2)c2cc(Cl)ccc2n1 [Example 30, (1S,3R)-N^1-(6-Chloro-2-(trifluoromethyl)quinolin-4-yl)-N^3-(pyrazolo[1,5-a]pyrazin-4-yl)cyclohexane-1,3-diamine]	0.0001 to 0.1	–	0.0001 to 0.1
Cn1ncc2c(N[C@@H]3CCC[C@H](Nc4cc(C(F)(F)F)nc5ccc(Cl)cc45)C3)ncnc21 [Example 31]	0.0001 to 0.1	–	0.0001 to 0.1
FC(F)(F)c1cc(N[C@H]2CCC[C@@H](Nc3ccccn3)C2)c2cc(Cl)ccc2n1 [Example 12, (1S,3R)-N^1-(6-Chloro-2-(trifluoromethyl)quinolin-4-yl)-N^3-(pyridin-2-yl)cyclohexane-1,3-diamine]	0.0001 to 0.1	–	0.1 to 1
FC(F)(F)c1cc(N[C@H]2CCC[C@@H](Nc3nccc4nccn34)C2)c2cc(Cl)ccc2n1 [Example 18, (1S,3R)-N^1-(6-Chloro-2-(trifluoromethyl)quinolin-4-yl)-N^3-(imidazo[1,2-c]pyrimidin-5-yl)cyclohexane-1,3-diamine]	–	0.0001 to 0.1	0.0001 to 0.1
